# Assay results from PMC3927474, “Whole body synthesis rates of DHA from α-linolenic acid are greater than brain DHA accretion and uptake rates in adult rats” (Journal of Lipid Research, 2014).
# Tests used:
# Format in all cases: in vivo, rat
# group 2a sPLA2 = experiment: Brain gene expression (TLDA qPCR); details: 15 wk diet; control diet = 1
# Method: (§1) RNA was extracted from the flash-frozen half brains of the 15 week postweaning rats. The brain was briefly thawed and dissected to isolate the brainstem, cerebellum, cortex, hippocampus, striatum, and the rest of the brain. RNA was extracted from the brain regions using Trizol reagent (Ambion; Life Technologies, Burlington, ON, Canada) according to the manufacturer's protocol. […] Chloroform was added to the Trizol reagent at a ratio of 1:5 (chloroform:Trizol reagent) and the solution was mixed and incubated at room temperature. The solution was then centrifuged at 12,000 g for 15 min at 4°C. […] The samples were then centrifuged at 12,000 g for 10 min at 4°C to precipitate the RNA pellet. […] The pellet was allowed to air dry, and was then dissolved in RNase-free water. A Nanodrop 1000 (NanoDrop Technologies Inc., Wilmington, DE) was used to determine the concentration and purity of each sample by measuring absorbance at 260 and 280 nm. Each sample was aliquoted to make 1 μg of RNA per 10 μl of sample and stored at -80°C. A high-capacity cDNA reverse transcription kit (Applied Biosystems, Burlington, ON, Canada) was used to reverse transcribe 1 μg of RNA according to the manufacturer's instructions. Newly synthesized cDNA was stored at -20°C until the following day when it was loaded onto TaqMan low density array (TLDA) plates. Quantitative real-time PCR was performed using TLDA (Applied Biosystems) on the 7900HT real-time PCR system (Applied Biosystems). cDNA (50 ng) was diluted with water to make a volume of 50 μl and mixed with 50 μl of TaqMan Universal PCR Master Mix (Applied Biosystems). The mixture was then loaded onto a customized preconfigured 384-well TLDA plate according to the manufacturer's protocol. TaqMan gene expression assays were used to assess 21 genes that were previously reported to be differentially expressed with n-3 deprivation. […] All genes were normalized to phosphoglycerate kinase 1. Similar results were found when normalizing to β-actin or 18S rRNA.
# group 6 iPLA2 = experiment: Brain gene expression (TLDA qPCR); details: 15 wk diet; control diet = 1
# Method: as §1
# tyrosine hydroxylase = experiment: Brain gene expression (TLDA qPCR); details: 15 wk diet; control diet = 1
# Method: as §1
# dopamine receptor D2 = experiment: Brain gene expression (TLDA qPCR); details: 15 wk diet; control diet = 1
# Method: as §1
# [1] = tested on: brain-derived neurotrophic factor; experiment: Brain gene expression (TLDA qPCR); details: 15 wk diet; control diet = 1
# Method: as §1
# retnoid X receptor β = experiment: Brain gene expression (TLDA qPCR); details: 15 wk diet; control diet = 1
# Method: as §1
# transthyretin = experiment: Brain gene expression (TLDA qPCR); details: 15 wk diet; control diet = 1
# Method: as §1
# group 4 cPLA2 = experiment: Brain gene expression (TLDA qPCR); details: 15 wk diet; control diet = 1
# Method: as §1
# [2] = Brain DHA uptake study: ^14C-DHA infusion; details: for Brain DHA uptake rate: 5 min ^14C-DHA infusion, 15 wk diet
# Method: At 15 weeks postweaning, a surgery was performed to implant a catheter into the jugular vein (described above). […] After 5 min of ^14C-DHA infusion rats were euthanized by high-energy head-focused microwave fixation (13.5 kW for 1.6 s). The brains were then removed, dissected sagittally and stored at −80°C until analysis.
# A known portion of the plasma TLE was then added to a scintillation vial with 5 ml of scintillation cocktail (GE Healthcare Life Sciences, Baie d'Urfe, QC, Canada). Radioactivity was measured using liquid scintillation counting to determine the plasma AUC for radioactivity. For plasma samples drawn at time 0 s of the infusion, the unesterified lipids were isolated by TLC and quantified using GC-FID (described above).
# Radioactivity was quantified by a Packard TRI-CARB2900TR liquid scintillation analyzer (Packard, Meriden, CT) with a detector efficiency of 48.8%. Radioactivity was expressed in disintegrations per minute; then converted to nCi.
# Brain hemispheres were homogenized and lipids extracted as described above. A known portion of the TLE was then added to a scintillation tube with 5 ml of scintillation cocktail. Radioactivity was quantified using liquid scintillation counting.
# To determine the brain DHA uptake rate, the incorporation coefficient for DHA from the unesterified plasma pool into the brain total lipid pool is ([26]):(Eq. 5) k^*=cbr*(T)/∫0Tcpl*dt where cbr*(T) is the total brain radioactivity at the end of the infusion and ∫0Tcpl*dt is the plasma radioactivity AUC.
# Multiplying the incorporation coefficient by the concentration of plasma unesterified DHA (cpl) allows for the determination of the brain DHA uptake rate:(Eq. 6) Jin=k^*cpl
smiles,measurement,setting,value
"CC/C=C\C/C=C\C/C=C\CCCCCCCC(=O)O [ALA, α-linolenic acid]",Brainstem gene expression: sPLA2,group 2a sPLA2,0.72 RQ
same,Cerebellum gene expression: sPLA2,group 2a sPLA2,0.86 RQ
same,Cortex gene expression: spla2,group 2a sPLA2,0.85 RQ
same,Hippocampus gene expression: sPLA2,group 2a sPLA2,1.08 RQ
same,Rest of brain gene expression: sPLA2,group 2a sPLA2,0.67 RQ
same,Striatum gene expression: sPLA2,group 2a sPLA2,0.46 RQ
same,Brainstem gene expression: iPLA2,group 6 iPLA2,0.89 RQ
same,Cerebellum gene expression: iPLA2,group 6 iPLA2,1.02 RQ
same,Cortex gene expression: iPLA2,group 6 iPLA2,0.92 RQ
same,Hippocampus gene expression: iPLA2,group 6 iPLA2,1.02 RQ
same,Rest of brain gene expression: iPLA2,group 6 iPLA2,0.95 RQ
same,Striatum gene expression: iPLA2,group 6 iPLA2,0.96 RQ
same,Brainstem gene expression: TH,tyrosine hydroxylase,1.24 RQ
same,Cerebellum gene expression: TH,tyrosine hydroxylase,1.60 RQ
same,Cortex gene expression: TH,tyrosine hydroxylase,1.56 RQ
same,Hippocampus gene expression: TH,tyrosine hydroxylase,1.15 RQ
same,Rest of brain gene expression: TH,tyrosine hydroxylase,1.09 RQ
same,Striatum gene expression: TH,tyrosine hydroxylase,1.12 RQ
same,Brainstem gene expression: DR D2,dopamine receptor D2,0.96 RQ
same,Cerebellum gene expression: DR D2,dopamine receptor D2,1.13 RQ
same,Cortex gene expression: DR D2,dopamine receptor D2,1.11 RQ
same,Hippocampus gene expression: DR D2,dopamine receptor D2,1.27 RQ
same,Rest of brain gene expression: DR D2,dopamine receptor D2,1.00 RQ
same,Striatum gene expression: DR D2,dopamine receptor D2,1.20 RQ
same,Brainstem gene expression: BDNF,[1],0.72 RQ
same,Cerebellum gene expression: BDNF,[1],0.98 RQ
same,Cortex gene expression: BDNF,[1],1.03 RQ
same,Hippocampus gene expression: BDNF,[1],1.03 RQ
same,Rest of brain gene expression: BDNF,[1],0.99 RQ
same,Striatum gene expression: BDNF,[1],1.01 RQ
same,Brainstem gene expression: RXRb,retnoid X receptor β,1.15 RQ
same,Cerebellum gene expression: RXRb,retnoid X receptor β,1.04 RQ
same,Cortex gene expression: RXR b,retnoid X receptor β,1.02 RQ
same,Hippocampus gene expression: RXR b,retnoid X receptor β,0.97 RQ
same,Rest of brain gene expression: RXR b,retnoid X receptor β,0.91 RQ
same,Striatum gene expression: RXRb,retnoid X receptor β,1.10 RQ
same,Brainstem gene expression: TTR,transthyretin,0.93 RQ
same,Cerebellum gene expression: TTR,transthyretin,1.75 RQ
same,Cortex gene expression: TTR,transthyretin,0.75 RQ
same,Hippocampus gene expression: TTR,transthyretin,6.67 RQ
same,Rest of brain gene expression: TTR,transthyretin,0.71 RQ
same,Striatum gene expression: TTR,transthyretin,2.37 RQ
same,Brainstem gene expression: cPLA2,group 4 cPLA2,0.98 RQ
same,Cerebellum gene expression: cPLA2,group 4 cPLA2,1.17 RQ
same,Cortex gene expression: cPLA2,group 4 cPLA2,0.93 RQ
same,Hippocampus gene expression: cPLA2,group 4 cPLA2,1.10 RQ
same,Rest of brain gene expression: cPLA2,group 4 cPLA2,0.85 RQ
same,Striatum gene expression: cPLA2,group 4 cPLA2,1.04 RQ
same,Brain DHA uptake rate,[2],467.6 ± 93.7 nmol/day
same,Brain DHA uptake rate,[2]; listed as ALA diet,468 nmol/day
"CC/C=C\C/C=C\C/C=C\C/C=C\C/C=C\C/C=C\CCC(=O)O [DHA, Docosahexaenoic acid]",Brainstem gene expression: sPLA2,group 2a sPLA2,1.10 RQ
same,Cerebellum gene expression: sPLA2,group 2a sPLA2,0.98 RQ
same,Cortex gene expression: spla2,group 2a sPLA2,1.17 RQ
same,Hippocampus gene expression: sPLA2,group 2a sPLA2,0.93 RQ
same,Rest of brain gene expression: sPLA2,group 2a sPLA2,1.17 RQ
same,Striatum gene expression: sPLA2,group 2a sPLA2,0.68 RQ
same,Brainstem gene expression: iPLA2,group 6 iPLA2,1.10 RQ
same,Cerebellum gene expression: iPLA2,group 6 iPLA2,1.00 RQ
same,Cortex gene expression: iPLA2,group 6 iPLA2,1.09 RQ
same,Hippocampus gene expression: iPLA2,group 6 iPLA2,1.05 RQ
same,Rest of brain gene expression: iPLA2,group 6 iPLA2,1.10 RQ
same,Striatum gene expression: iPLA2,group 6 iPLA2,0.90 RQ
same,Brainstem gene expression: TH,tyrosine hydroxylase,0.98 RQ
same,Cerebellum gene expression: TH,tyrosine hydroxylase,1.23 RQ
same,Cortex gene expression: TH,tyrosine hydroxylase,1.11 RQ
same,Hippocampus gene expression: TH,tyrosine hydroxylase,1.01 RQ
same,Rest of brain gene expression: TH,tyrosine hydroxylase,1.18 RQ
same,Striatum gene expression: TH,tyrosine hydroxylase,1.19 RQ
same,Brainstem gene expression: DR D2,dopamine receptor D2,0.88 RQ
same,Cerebellum gene expression: DR D2,dopamine receptor D2,1.09 RQ
same,Cortex gene expression: DR D2,dopamine receptor D2,1.12 RQ
same,Hippocampus gene expression: DR D2,dopamine receptor D2,0.95 RQ
same,Rest of brain gene expression: DR D2,dopamine receptor D2,1.05 RQ
same,Striatum gene expression: DR D2,dopamine receptor D2,0.98 RQ
same,Brainstem gene expression: BDNF,[1],1.19 RQ
same,Cerebellum gene expression: BDNF,[1],0.88 RQ
same,Cortex gene expression: BDNF,[1],1.16 RQ
same,Hippocampus gene expression: BDNF,[1],1.13 RQ
same,Rest of brain gene expression: BDNF,[1],0.99 RQ
same,Striatum gene expression: BDNF,[1],2.10 RQ
same,Brainstem gene expression: RXRb,retnoid X receptor β,1.29 RQ
same,Cerebellum gene expression: RXRb,retnoid X receptor β,0.96 RQ
same,Cortex gene expression: RXR b,retnoid X receptor β,1.05 RQ
same,Hippocampus gene expression: RXR b,retnoid X receptor β,1.07 RQ
same,Rest of brain gene expression: RXR b,retnoid X receptor β,1.12 RQ
same,Striatum gene expression: RXRb,retnoid X receptor β,1.02 RQ
same,Brainstem gene expression: TTR,transthyretin,0.46 RQ
same,Cerebellum gene expression: TTR,transthyretin,0.72 RQ
same,Cortex gene expression: TTR,transthyretin,1.49 RQ
same,Hippocampus gene expression: TTR,transthyretin,2.40 RQ
same,Rest of brain gene expression: TTR,transthyretin,1.08 RQ
same,Striatum gene expression: TTR,transthyretin,0.66 RQ
same,Brainstem gene expression: cPLA2,group 4 cPLA2,6.22 RQ
same,Cerebellum gene expression: cPLA2,group 4 cPLA2,0.98 RQ
same,Cortex gene expression: cPLA2,group 4 cPLA2,1.11 RQ
same,Hippocampus gene expression: cPLA2,group 4 cPLA2,0.98 RQ
same,Rest of brain gene expression: cPLA2,group 4 cPLA2,0.99 RQ
same,Striatum gene expression: cPLA2,group 4 cPLA2,0.92 RQ
same,Brain DHA uptake rate,[2],858.6 ± 74.8 nmol/day
same,"Uptake rate of DHA into the brain, DHA-fed relative to ALA-fed rats","[2]; rat, in vivo",~2 fold
